The source of these data is ChEMBL document CHEMBL1148005, “A cell-permeable inhibitor and activity-based probe for the caspase-like activity of the proteasome” (Bioorg Med Chem Lett, 2007).

Holding throughout (assay type): tissue-based
Common to all, as to conditions: Muscle tissue

The species named for assay [1] is Oryctolagus cuniculus. Nature of the assay: Inhibition of caspase-like activity of rabbit muscle 26S proteasome after 30 mins.
For assay [2], the species on record is Oryctolagus cuniculus. Nature of the assay: Inhibition of caspase-like activity of rabbit muscle 26S proteasome at 10 to 20 uM after 30 mins.
Assay [3] is filed under the species Oryctolagus cuniculus. Description: Inhibition of chymotrypsin-like activity of rabbit muscle 26S proteasome upto 500 uM after 30 mins.
For assay [4], the species on record is Oryctolagus cuniculus. Nature of the assay: Inhibition of trypsin-like activity of rabbit muscle 26S proteasome upto 500 uM after 30 mins.
The species named for assay [5] is Oryctolagus cuniculus. Description: Inhibition of caspase-like activity of rabbit muscle 26S proteasome at 50 to 100 uM after 30 mins.
The species entered for assay [6] is Oryctolagus cuniculus. Nature of the assay: Inhibition of trypsin-like activity of rabbit muscle 26S proteasome at 50 to 100 uM after 30 mins.

Structures are written as SMILES. Activity calls are given as the source filed them. The rule behind the calls is not given here. Some results are limits rather than exact numbers.

Usually inhibition stands for how much of the control response was suppressed. A lower inhibition goes with a weak effect. Turning to `CCCC[C@H](NC(=O)[C@@H]1CCCN1C(=O)[C@H](C)NC(C)=O)C(=O)N[C@H](/C=C/S(=O)(=O)c1ccc(O)cc1)CC(C)C`, the outcome in the assay listed under Oryctolagus cuniculus [1], in the assay filed under Oryctolagus cuniculus [5] and in the assay filed under Oryctolagus cuniculus [6] was Active. The inhibition in the assay filed under Oryctolagus cuniculus [2] is > 90%. Further, the outcome in the assay filed under Oryctolagus cuniculus [3] and in the assay filed under Oryctolagus cuniculus [4] was inactive.
`CCCC[C@H](NC(=O)[C@@H]1CCCN1C(=O)[C@H](C)NC(=O)CN=[N+]=[N-])C(=O)N[C@H](/C=C/S(=O)(=O)c1ccc(O)cc1)CC(C)C`: in the assay listed under Oryctolagus cuniculus [1], the outcome was Active.
